Measured values: patent US8492441B2, “Dosage regimen of an S1P receptor agonist” (Novartis AG, priority 2008, dated 2013)
Values belong to the compound of their own block, whether it stands above or below them.

What was measured:
healthy subjects [1] = settings: administration of 1.25 mg; cited from earlier work
multiple sclerosis = settings: humans; cited from earlier work
subjects [2] = assay: Example 1 dose titration study: Holter monitoring of ectopies (SVEs, VEs) and pauses >2 secs; format: in vivo, human; settings: for subjects with total number of SVEs 0-10 / subjects with total number of SVEs 11-20 / subjects with total number of SVEs 21-50 / subjects with total number of SVEs >50 / subjects with total number of VEs 0-5 / subjects with total number of VEs 6-10 / subjects with total number of VEs 11-30 / subjects with total number of VEs >30 / subjects with total number of pauses >2 secs: 0 / subjects with total number of pauses >2 secs: 1 / subjects with total number of pauses >2 secs: >1: any time during the 12-day treatment period
Experimental: (§1) Increasing doses of Compound A starting at 0.25 mg o.d. and ending at the maximal therapeutic dose of 10 mg o.d. are given to 28 subjects over 12 days as specified in Table 1 below. A placebo group and a positive control group receiving the 10 mg final therapeutic dose are also included in the study (each of 14 subjects).
Pharmacodynamic and safety assessments are performed up to 24 hours post last dose. Heart rhythm is assessed via 24 hr continuous holter monitoring on Day −1, Day 1, Day 11 and Day 12. For each dosing for each subject, the drug is administered as closely as practically possible to the time administered on Day −1. Safety assessments includes physical examinations, vital signs and body measurements, 12-lead ECG evaluations, standard clinical laboratory evaluations hematology, blood chemistry, urinalysis, adverse event and serious adverse event monitoring.
24-hour continuous Holter-ECG data are captured via a digital Holter monitor (12-lead, on Days […]), and transferred for interpretation and reporting. Holter monitoring starts approximately at 7:00 and the time of dose administration is regarded as the time “0 hours”. Holter “cuts” are derived from the dataset at 1 hour intervals starting from Day −1 and continuing for 24 hours or the end of the cleaned Holter monitoring dataset.
(§2) Cardiac conduction intervals: arrhythmia monitoring includes the frequency and duration of sinus pauses (>2 sec and >3 sec) and atrio-ventricular blocks. Frequency and duration of atrial and ventricular ectopy and sinus rhythm are also recorded. The daily chronotropic effect is defined as the percent decrease in HRmin, (minimum heart rate) between two consecutive days. It is calculated on days 1 to 12.

healthy subjects [3] = assay: Absolute lymphocyte count after multiple daily doses (FIG. 2); format: in vivo, human
Description: Preferred medications comprise medication for patients suffering from chronic longterm diseases, such as autoimmune diseases, e.g. multiple sclerosis, Polymyositis, lupus nephritis, rheumatoid arthritis, inflammatory bowel diseases or psoriasis. In an embodiment of the invention, medications are medications for patients suffering from multiple sclerosis, for example relapse remitting multiple sclerosis (RRMS) or primary progressive multiple sclerosis (PPMS), e.g. for patients suffering from RRMS.

subjects [4] = assay: Example 1 dose titration study: continuous telemetry of heart rate (daily minimum heart rate, HRmin); format: in vivo, human
Experimental: as §1
On Day −1 (baseline), subjects undergo baseline assessments including 24 hour holter monitoring and telemetry assessments. Subjects remain on continuous telemetry, starting before breakfast on Day −1 and proceeding throughout the administration period up to Day 13 (24 hour after the last dose). Over this 13 day duration of continuous heart rate collection for each subject, one heart rate value is obtained every minute (‘minute unit heart rate’), representing the average heart rate value over that minute. The heart rate database for each subject contains approximately […] data points (13 days×24 hr×60 min).
The daily chronotropic effect is defined as the percent decrease in HRmin between two consecutive days. It is calculated on days 1 to 12.
as §2
The variation in daily minimum heart rate, HRmin (minimum of 24 hourly mean heart rates) over the course of the study is shown in FIG. 1.

[5] = 10 mg daily from Day 1 (N = 14)
[6] = DT#1 titration 0.25 to 10 mg (N = 14)
[7] = DT#2 titration (Fibonacci) 0.25 to 10 mg (N = 14)

Compound: CCCCCCCCc1ccc(CCC(N)(CO)CO)cc1 [FTY720]
decrease in heart rate (healthy subjects [1]): approximately 8 beats/min (BPM) | efficacy in the treatment of multiple sclerosis (multiple sclerosis): has been demonstrated in humans

subjects with total number of SVEs 0-10 (subjects [2]; [5]): 1 (7.1%) n (%) | subjects with total number of SVEs 11-20 (subjects [2]; [5]): 2 (14.3%) n (%) | subjects with total number of SVEs 21-50 (subjects [2]; [5]): 5 (35.7%) n (%) | subjects with total number of SVEs >50 (subjects [2]; [5]): 6 (42.9%) n (%) | subjects with total number of VEs 0-5 (subjects [2]; [5]): 6 (42.9%) n (%) | subjects with total number of VEs 6-10 (subjects [2]; [5]): 4 (28.6%) n (%) | subjects with total number of VEs 11-30 (subjects [2]; [5]): 1 (7.1%) n (%) | subjects with total number of VEs >30 (subjects [2]; [5]): 3 (21.4%) n (%) | subjects with total number of pauses >2 secs: 0 (subjects [2]; [5]): 10 (71.4%) n (%) | subjects with total number of pauses >2 secs: 1 (subjects [2]; [5]): 1 (7.1%) n (%) | subjects with total number of pauses >2 secs: >1 (subjects [2]; [5]): 3 (21.4%) n (%) | subjects with total number of SVEs 0-10 (subjects [2]; [6]): 1 (7.1%) n (%) | subjects with total number of SVEs 11-20 (subjects [2]; [6]): 3 (21.4%) n (%) | subjects with total number of SVEs 21-50 (subjects [2]; [6]): 2 (14.3%) n (%) | subjects with total number of SVEs >50 (subjects [2]; [6]): 8 (57.1%) n (%) | subjects with total number of VEs 0-5 (subjects [2]; [6]): 3 (21.4%) n (%) | subjects with total number of VEs 6-10 (subjects [2]; [6]): 5 (35.7%) n (%) | subjects with total number of VEs 11-30 (subjects [2]; [6]): 4 (28.6%) n (%) | subjects with total number of VEs >30 (subjects [2]; [6]): 2 (14.3%) n (%) | subjects with total number of pauses >2 secs: 0 (subjects [2]; [6]): 10 (71.4%) n (%) | subjects with total number of pauses >2 secs: 1 (subjects [2]; [6]): 1 (7.1%) n (%) | subjects with total number of pauses >2 secs: >1 (subjects [2]; [6]): 3 (21.4%) n (%) | subjects with total number of SVEs 0-10 (subjects [2]; [7]): 0 n (%) | subjects with total number of SVEs 11-20 (subjects [2]; [7]): 1 (7.1%) n (%) | subjects with total number of SVEs 21-50 (subjects [2]; [7]): 4 (28.6%) n (%) | subjects with total number of SVEs >50 (subjects [2]; [7]): 9 (64.3%) n (%) | subjects with total number of VEs 0-5 (subjects [2]; [7]): 3 (21.4%) n (%) | subjects with total number of VEs 6-10 (subjects [2]; [7]): 2 (14.3%) n (%) | subjects with total number of VEs 11-30 (subjects [2]; [7]): 5 (35.7%) n (%) | subjects with total number of VEs >30 (subjects [2]; [7]): 4 (28.6%) n (%) | subjects with total number of pauses >2 secs: 0 (subjects [2]; [7]): 13 (92.9%) n (%) | subjects with total number of pauses >2 secs: 1 (subjects [2]; [7]): 0 n (%) | subjects with total number of pauses >2 secs: >1 (subjects [2]; [7]): 1 (7.1%) n (%)
Compound: CCc1cc(/C(C)=N/OCc2ccc(C3CCCCC3)c(C(F)(F)F)c2)ccc1CN1CC(C(=O)O)C1 [Compound A, 1-{4-[1-(4-cyclohexyl-3-trifluoromethyl-benzyloxyimino)-ethyl]-2-ethyl-benzyl}-azetidine-3-carboxylic acid]
number of heart pauses greater than 2 seconds, comparison of regimens (subjects [2]; second titration regimen DT#2 (Fibonacci sequence) vs the other active treatment regimens): lower number of heart pauses greater than 2 seconds | absolute lymphocyte count in the blood (healthy subjects [3]): reduces the absolute lymphocyte count | increase in heart rate (subjects [4]; 10 mg treatment group, from Day 1 to Day 2): approximately 5 BPM | decrease in heart rate (subjects [4]; 10 mg treatment group, from Day -1 to Day 1): approximately 8 BPM | further increase in heart rate (subjects [4]; 10 mg treatment group, from day 2 to day 4): approximately 3 BPM | gradual decrease in heart rate per day (subjects [4]; both titration groups (DT#1, DT#2), first seven days of the dose titration): 1-2 BPM per day | total reduction in heart rate (subjects [4]; both titration groups (DT#1, DT#2), over the first seven days of the dose titration): 4-5 BPM | heart rate recovery after day 7 (subjects [4]; both titration groups, over the next 2-3 days after the first seven days): the heart rate increased to approximately the placebo level | dip in heart rate on initiation of the 10 mg dose after titration (subjects [4]; titration groups, 10 mg dose initiated on Days 8 and 9, compared to preceding days): did not result in a significant dip in heart rate | effect of dose titration regimen on negative chronotropic effect (subjects [4]; titration regimen vs Day 1 of 10 mg dose treatment initiation): attenuates the negative chronotropic effect
